ChEMBL document CHEMBL5308504, “Tm Shift (DSF) assay results for EUbOPEN Chemogenomics Library” (2023)
Values joined by “and” are separate entries in the source; they are usually repeats but may differ in a detail not shown here. Equal values may be shown once.

Key:
Peregrin (Homo sapiens) = biological target: T1, Peregrin (Homo sapiens) (UniProt P55201); conditions: Compound concentration 20.0 uM, Protein concentration 2.0 uM, Result type QC Liability
T1 sequence (whole entry): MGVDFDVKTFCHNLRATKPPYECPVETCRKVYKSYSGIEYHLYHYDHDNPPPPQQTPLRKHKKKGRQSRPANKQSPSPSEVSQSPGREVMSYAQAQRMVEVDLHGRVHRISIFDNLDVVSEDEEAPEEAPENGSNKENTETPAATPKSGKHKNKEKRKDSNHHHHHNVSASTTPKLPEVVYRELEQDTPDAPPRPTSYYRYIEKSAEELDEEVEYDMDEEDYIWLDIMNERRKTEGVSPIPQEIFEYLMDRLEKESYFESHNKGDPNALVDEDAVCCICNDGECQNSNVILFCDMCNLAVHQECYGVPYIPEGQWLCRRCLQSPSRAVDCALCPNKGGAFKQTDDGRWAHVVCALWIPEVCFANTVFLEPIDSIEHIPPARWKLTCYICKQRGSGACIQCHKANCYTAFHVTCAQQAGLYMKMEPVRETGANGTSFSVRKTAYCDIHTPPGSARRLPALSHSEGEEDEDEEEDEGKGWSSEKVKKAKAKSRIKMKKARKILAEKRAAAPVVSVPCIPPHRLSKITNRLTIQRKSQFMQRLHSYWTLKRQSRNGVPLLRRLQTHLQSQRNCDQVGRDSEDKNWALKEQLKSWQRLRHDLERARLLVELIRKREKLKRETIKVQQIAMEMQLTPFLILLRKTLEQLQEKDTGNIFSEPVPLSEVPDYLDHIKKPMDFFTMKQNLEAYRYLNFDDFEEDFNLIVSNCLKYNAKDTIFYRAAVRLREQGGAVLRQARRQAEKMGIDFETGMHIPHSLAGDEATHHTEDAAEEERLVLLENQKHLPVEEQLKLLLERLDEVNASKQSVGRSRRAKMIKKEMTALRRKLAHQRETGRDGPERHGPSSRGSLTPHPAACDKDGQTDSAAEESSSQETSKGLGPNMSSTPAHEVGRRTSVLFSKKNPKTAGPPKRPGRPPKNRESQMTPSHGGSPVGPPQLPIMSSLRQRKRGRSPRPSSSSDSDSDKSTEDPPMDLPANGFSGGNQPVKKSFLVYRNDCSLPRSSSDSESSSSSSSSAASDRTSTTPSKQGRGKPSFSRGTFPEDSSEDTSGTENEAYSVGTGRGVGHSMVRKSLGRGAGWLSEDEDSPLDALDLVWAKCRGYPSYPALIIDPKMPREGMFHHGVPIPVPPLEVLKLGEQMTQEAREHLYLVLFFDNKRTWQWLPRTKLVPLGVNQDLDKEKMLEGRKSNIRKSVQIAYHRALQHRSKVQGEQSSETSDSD

[1] = biological target: Fibroblast growth factor receptor 3 (Homo sapiens) (UniProt P22607); conditions: Compound concentration 20.0 uM, Protein concentration 2.0 uM, Result type QC Liability
Fibroblast growth factor receptor 3 (Homo sapiens), sequence (P22607 23-806 limits assumed): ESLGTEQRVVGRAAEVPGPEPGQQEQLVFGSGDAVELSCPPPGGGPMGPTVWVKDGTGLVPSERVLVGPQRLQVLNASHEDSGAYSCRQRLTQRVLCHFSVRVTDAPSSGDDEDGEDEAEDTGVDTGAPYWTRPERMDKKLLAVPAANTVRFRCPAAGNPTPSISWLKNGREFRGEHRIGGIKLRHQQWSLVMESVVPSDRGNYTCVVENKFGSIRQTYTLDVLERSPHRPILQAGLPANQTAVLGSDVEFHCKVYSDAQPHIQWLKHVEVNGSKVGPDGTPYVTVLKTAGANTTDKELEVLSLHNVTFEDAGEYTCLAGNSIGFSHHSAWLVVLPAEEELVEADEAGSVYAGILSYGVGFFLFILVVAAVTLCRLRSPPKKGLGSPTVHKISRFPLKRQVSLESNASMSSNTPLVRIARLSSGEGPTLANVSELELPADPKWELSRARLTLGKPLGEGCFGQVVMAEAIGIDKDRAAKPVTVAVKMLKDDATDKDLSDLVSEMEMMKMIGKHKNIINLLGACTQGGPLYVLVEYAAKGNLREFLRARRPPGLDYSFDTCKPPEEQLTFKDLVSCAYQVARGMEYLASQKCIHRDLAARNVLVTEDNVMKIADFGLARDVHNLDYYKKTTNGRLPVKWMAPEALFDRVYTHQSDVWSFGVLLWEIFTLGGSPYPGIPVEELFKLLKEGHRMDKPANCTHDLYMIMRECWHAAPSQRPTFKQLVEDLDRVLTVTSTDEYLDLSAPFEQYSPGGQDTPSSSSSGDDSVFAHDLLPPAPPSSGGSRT

| SMILES | ΔTm (Peregrin (Homo sapiens)) | ΔTm [1] |
| --- | --- | --- |
| Cc1cc(OC2CCS(=O)(=O)CC2)cc(C)c1-c1cccc(COc2ccc(C(=O)O)c(F)c2)c1 | -2.62 °C | 1.28 °C |
| CC(C)(C)OC(=O)CN1C(=O)c2c(OCC(=O)O)cccc2Oc2ccc(C(F)(F)F)cc21 | -3.16 °C | 0.75 °C |
| CC(C=CC1=C(C)CCCC1(C)C)=CC=CC(C)=CC(=O)O | -2.28 °C | 0.68 °C |
| CC(C)(C)C(=O)NCc1ccc(Cl)c(C(=O)Nc2ncc[nH]2)c1 | -2.86 °C | 0.47 °C |
| COc1cc(-c2cn[nH]c2)ccc1C(=O)Nc1ccc2c(c1)CCNCC2 | 0.1 °C | 0.93 °C |
| O=C(Cc1ccccc1)Nc1nnc(N2CC[C@@H]3[C@H]2CN3c2cccnn2)s1 | -0.69 °C | 0.51 °C |
| O=C(O)CCCN1CCC[C@H]1COc1ccc(Oc2ccc(Cl)cc2)cc1 | -3.24 °C | 0.41 °C |
| Cc1cn(CCN2CCN(c3ccccc3-c3cc(C#N)cc(C(=O)NCCCN4CCCC4)c3)CC2)c2ccccc12 | 0.42 °C | -1.2 °C |
| Cc1cc(SCc2sc(-c3ccc(C(F)(F)F)cc3)nc2C)ccc1OCC(=O)O | -1.59 °C | 1.04 °C |
| CC(C)NC(=O)[C@H]1CCC[C@H]1Nc1nc(Nc2ccc(C(=O)N(C)C3CCN(C)CC3)cc2)ncc1Cl | -1.64 °C and -0.91 °C | 6.71 °C and 5.98 °C |
| CS(=O)(=O)CCNCc1ccc(-c2ccc3ncnc(Nc4ccc(OCc5cccc(F)c5)c(Cl)c4)c3c2)o1 | -1.41 °C | 0.79 °C |
| CN(C)[C@H]1C[C@H](n2cnc(-c3ccc(F)cn3)c2-c2ccnc3[nH]ccc23)C1 | -0.35 °C | 0.61 °C |
| Cc1nccn1-c1ccc(Sc2cccc(C3(C(N)=O)CCOCC3)c2)cc1 | -1.72 °C | 0.44 °C |
| NCc1ccc(OCCCc2sc(-c3ccc4c(c3)/C(=N/Nc3nc5ccccc5s3)CCC4)nc2C(=O)O)cc1 | -3.06 °C | 0.58 °C |
| CC[C@H](CC(=O)O)n1c(=O)c2ncccc2n(Cc2cn(C)c3cc(C)cc(C)c23)c1=O | -2.28 °C and -0.95 °C | 0.98 °C and 0.62 °C |
| Cn1cc(Nc2nccc(N3CC4CCC(C3)N4C(=O)[C@@H]3CC3(F)F)n2)cn1 | -0.71 °C | 2.58 °C |
| CN(CC(=O)Nc1ccc(F)c(F)c1F)C(=O)c1ccc2c(c1)OCCO2 | -0.72 °C | 0.6 °C |
| C[C@@]1(Cc2ccc(C#N)cc2)C(=O)N(c2cc(Cl)cc(Cl)c2)c2ncc(C(=O)NC3(c4nc(C5CCC5)no4)CC3)n21 | 3.75 °C | 3.32 °C |
| CCc1ccc(-c2ncn(CC3(F)CCN(C)CC3)c2-c2ccnc3[nH]ccc23)nc1 | -1.47 °C | 0.58 °C |
| Cc1cc(-c2nc(-c3ccc(OC(F)(F)F)cc3)no2)nn1Cc1ccnc(N2CCN(C3CC3)CC2)c1 | -10.7 °C | 1.28 °C |

| SMILES | ΔTm (Peregrin (Homo sapiens)) | ΔTm [1] |
| --- | --- | --- |
| Cc1nnc2n1-c1sc3c(c1C(c1ccccc1Cl)=NC2)C[C@H](C(=O)N1CCOCC1)C3 | -1.51 °C | 0.59 °C |
| C[C@]12CC[C@@H]3c4ccc(O)cc4CC[C@H]3[C@@H]1C[C@H]1OC(=O)C[C@]12O | -1.41 °C | 0.36 °C |
| Cc1cc2c(ncn2C2(C)CN(C(=O)c3ccn(CC4CCN([C@H]5C=CCCCC5)CC4)c3)C2)c(N)n1 | -0.47 °C | 0.4 °C |
| CN(C)[C@H]1CCc2nc(NC(=O)c3cccc(Cn4cc(-c5ccc(C#N)cc5)cn4)c3)sc2C1 | 0.07 °C | 0.81 °C |
| Cc1ncsc1-c1ccc(CNC(=O)[C@@H]2C[C@H](O)CN2C(=O)[C@@H](NC(=O)C2(F)CC2)C(C)(C)C)c(OCCOc2ccc(CN3CCN(c4cc(-c5ccccc5O)nnc4N)CC3)cc2)c1 (relative stereo) | 4.18 °C | -0.13 °C |
| C1=Cc2ccccc2C(=C2CCN(CCCCc3nnn[nH]3)CC2)c2ccccc21 | -1.48 °C | 0.36 °C |
| O=S(=O)(Nc1ccc(C(O)(C(F)(F)F)C(F)(F)F)cc1)c1cccs1 | -1.54 °C | 0.59 °C |
| Fc1ccc(Cl)cc1-c1nc(Nc2ccncc2)c2nccnc2n1 | -0.76 °C | 0.54 °C |
| Cc1nc2cccnc2n2c(-c3cc([C@@]4(O)CCCOC4)ccc3Cl)nnc12 | -2.38 °C | 0.59 °C |
| Cc1ccc(NS(=O)(=O)c2ccc3c(c2)C2C=CCC2C(c2ccc(C(=O)O)cc2)N3)cc1C (stereo not given) | -0.5 °C | 0.11 °C |
| CC[C@H](CO)Nc1nc(Nc2cccc(-c3ccccn3)c2)c2ncn(C(C)C)c2n1 | -2.18 °C | 2.78 °C |
| CCN(CC)C/C=C/C(=O)Nc1cc2c(Nc3ccc(F)c(Cl)c3)ncnc2cc1OCC1CC1 | -0.42 °C | 1.12 °C |
| CC1=C(C(=O)OCCO)[C@@H](c2ccc(C#N)cc2)NC(=O)N1c1cccc(C(F)(F)F)c1 | -1.72 °C | 0.42 °C |
| Cc1ccc(C(=O)Nc2cc(N3CCN(C)CC3)cc(C(F)(F)F)c2)cc1-n1cc(-c2cnn(C)c2C)nn1 | -0.61 °C | 3.8 °C |
| Cn1cc(C(=O)O)c2ccc(N3CCC(OCc4c(-c5c(Cl)cccc5Cl)noc4C4CC4)CC3)cc21 | -1.9 °C | 0.91 °C |
| Cc1cc(-c2ccnc(Nc3cnn(C)c3)n2)ccc1CNC(=O)N1CC(OC(C)C)C1 | -1.39 °C | 2.34 °C |
| COCCN1CCN(CCn2ccc(Nc3ncc4c(n3)-c3c(nn(C)c3-c3ccccc3)C[C@H]4C)n2)CC1 | -0.48 °C | 3.58 °C |
| CCCS(=O)(=O)N[C@H]1C[C@@H](N(C)c2ncnc3[nH]ccc23)C1 | -1.75 °C | 1.73 °C |
| O=C(CNCc1cc2ccccc2[nH]1)N[C@H]1CC[C@@H](c2nc3ccccc3[nH]2)CC1 | 0.07 °C | 0.46 °C |
| COC(=O)Nc1nc2c(s1)-c1c(c(-c3cccnc3)nn1-c1ccc(C3(N(C)C)CC3)cc1)CC2 | -1.72 °C | 1.4 °C |

| SMILES | ΔTm (Peregrin (Homo sapiens)) | ΔTm [1] |
| --- | --- | --- |
| Cc1nc(-c2ccc(C(F)(F)F)cc2)sc1C(=O)NCc1ccc(OC(C)(C)C(=O)O)cc1 | -1.41 °C | 0.71 °C |
| CN1CCN(c2ccnc(NCCc3ccccc3)n2)CC1 | -1.12 °C | 0.59 °C |
| CCCCCCCN(CCc1ccc(SC(C)(C)C(=O)O)cc1)C(=O)Nc1ccc(F)cc1F | -1.59 °C | 0.87 °C |
| CCCCCCC(Sc1nc(Cl)cc(NCc2ccc(-c3ccccc3)cc2)n1)C(=O)O (stereo not given) | -6.38 °C | 0.79 °C |
| CC(C)(C)NC(=O)c1cncn1C1CCN(c2ccc(-c3nnc(C(F)(F)F)o3)cn2)CC1 | -2.22 °C | 0.91 °C |
| COc1ccc(-n2nc(C(F)(F)F)cc2-c2ccc(Cl)cc2)cc1 | -3.19 °C | 0.81 °C |
| COc1cc(C(=O)NCCOCCOCCOCCC(=O)Nc2cccc3c2C(=O)N(C2CCC(=O)NC2=O)C3=O)ccc1Nc1ncc(C(F)(F)F)c(Oc2cccc3c2C(=O)CC3)n1 (stereo not given) | -2.32 °C | -3.01 °C |
| CC(C)N1CCN(Cc2cnc(-c3cc(-c4cccc5[nH]ccc45)cc4[nH]ncc34)o2)CC1 | 0.22 °C | 1.84 °C |
| CN(C)[C@H]1CC[C@H](Nc2ncc3ncnc(Nc4ccc(F)c(Cl)c4)c3n2)CC1 | 1.59 °C | 0.8 °C |
| COc1cc(Oc2nc(-c3ccc(NC(=O)C4CCOC4)cc3)nn3c(C)nc(C)c23)cc(OC)c1OC (stereo not given) | -1.59 °C | 1.34 °C |
| COc1cc(N2CCN(C)CC2)ccc1Nc1ncc2c(n1)N(C)c1ccccc1C(=O)N2CC(F)(F)F | -2.22 °C | 0.22 °C |
| COc1cc(-c2cncc(-c3ccc(N4CCN(C(C)C)CC4)cc3)c2C)cc(F)c1C(=O)N1CCCC1 | -1.67 °C | 0.64 °C |
| O=C1CCC(N2Cc3cc(CNC(=O)C(F)(F)c4ccc(Cl)cc4)ccc3C2=O)C(=O)N1 (stereo not given) | -1.67 °C | 0.44 °C |
| CNC(=O)c1ccc2c(c1)ncn2-c1ccc(CC(=O)OC(C)(C)C)cc1 | -1.38 °C | 4.13 °C |
| C[C@@H](Oc1cc(-n2cnc3ccc(OC4CCN(C)CC4)cc32)sc1C(N)=O)c1ccccc1Cl | 0.36 °C | 3.37 °C |
| Cc1ccccc1Oc1cc(-n2c(=O)cc(C(F)(F)F)[nH]c2=O)c2ccccc2c1Cl | -1.36 °C | 0.76 °C |
| CCCn1cc(-c2cc(C3C(=O)N(CC)c4ccc(C(F)(F)F)cc4N(c4ccccc4)C3=O)cc(OC)c2O)cn1 (stereo not given) | -1.21 °C | 0.46 °C |
| COc1cc2ncnc(Nc3ccc(F)c(Cl)c3)c2cc1OCCN(C)C[C@H](C)O | -1.85 °C | 1.03 °C |
| CC/C(=C(\c1ccccc1)c1ccc(OCCN(C)C)cc1)c1ccccc1 | -3.71 °C | 0.3 °C |
| CNC(=O)c1cc(C(=O)N[C@H]2[C@@H]3COC[C@@H]32)cc2c1O[C@H](CF)[C@H]2c1ccccc1 | -0.69 °C | 0.65 °C |
